Reference: US20130018033A1, “RAF INHIBITOR COMPOUNDS AND METHODS OF USE THEREOF” (ARRAY BIOPHARMA INC., priority 2009, published 2013)
Where two headings read alike, the source gives them in different places.

Tests used:
[1] = system: basal ERK1/2 phosphorylation in Malme-3M cells; assay: Cellular ERK 1/2 phosphorylation assay (Example A1); assay type: cell-based; conditions: Homo sapiens, 1 hour incubation, pERK normalized to total ERK, read-out: P-ERK Malme3-M IC50
Protocol: Inhibition of basal ERK1/2 phosphorylation was determined by the following in vitro […], which comprises incubating cells with a compound of Formula I for 1 hour and quantifying the fluorescent pERK signal on fixed cells and normalizing to total ERK signal.
Malme-3M cells were obtained from ATCC and grown in RPMI-1640 supplemented with 10% fetal bovine serum. Cells were plated in 96-well plates at 24,000 cells/well and allowed to attach for 16-20 hours at 37° C., 5% CO2. The media was removed, and DMSO-diluted compounds were added in RPMI-1640 at a final concentration of 1% DMSO. The cells were incubated with the compounds for 1 hour at 37° C., 5% CO2. The cells were washed with PBS and fixed in 3.7% formaldehyde in PBS for 15 minutes. This was followed by washing in PBS/0.05% Tween20 and permeabilizing in −20° C. 100% MeOH for 15 minutes. Cells were washed in PBS/0.05% Tween20 then blocked in Odyssey blocking buffer (LI-COR Biosciences) for 1 hour. Antibodies to phosphorylated ERK (1:400, Cell Signaling #9106, monoclonal) and total ERK (1:400, Santa Cruz Biotechnology #sc-94, polyclonal) were added to the cells and incubated 16-20 hours at 4° C. After washing with PBS/0.05% Tween20, the cells were incubated with fluorescently-labeled secondary antibodies (1:1000 goat anti-rabbit IgG-IRDye800, Rockland and 1:500 goat anti-mouse IgG-Alexa Fluor 680, Molecular Probes) for an additional hour. Cells were then washed and analyzed for fluorescence at both wavelengths using the Odyssey Infrared Imaging System (LI-COR Biosciences). Phosphorylated ERK signal was normalized to total ERK signal.

V600E full-length B-Raf = molecular target: T1, V600E full-length B-Raf (Homo sapiens, UniProt P15056, V600E); assay: B-Raf IC50 assay (Example A); assay type: biochemical
T1 construct: 1 μM FSBA-MEK and 20 nM V600E full-length B-Raf; made in house; host or cells: Sf9 insect cells (baculovirus)
T1 sequence (P15056 whole entry V600E): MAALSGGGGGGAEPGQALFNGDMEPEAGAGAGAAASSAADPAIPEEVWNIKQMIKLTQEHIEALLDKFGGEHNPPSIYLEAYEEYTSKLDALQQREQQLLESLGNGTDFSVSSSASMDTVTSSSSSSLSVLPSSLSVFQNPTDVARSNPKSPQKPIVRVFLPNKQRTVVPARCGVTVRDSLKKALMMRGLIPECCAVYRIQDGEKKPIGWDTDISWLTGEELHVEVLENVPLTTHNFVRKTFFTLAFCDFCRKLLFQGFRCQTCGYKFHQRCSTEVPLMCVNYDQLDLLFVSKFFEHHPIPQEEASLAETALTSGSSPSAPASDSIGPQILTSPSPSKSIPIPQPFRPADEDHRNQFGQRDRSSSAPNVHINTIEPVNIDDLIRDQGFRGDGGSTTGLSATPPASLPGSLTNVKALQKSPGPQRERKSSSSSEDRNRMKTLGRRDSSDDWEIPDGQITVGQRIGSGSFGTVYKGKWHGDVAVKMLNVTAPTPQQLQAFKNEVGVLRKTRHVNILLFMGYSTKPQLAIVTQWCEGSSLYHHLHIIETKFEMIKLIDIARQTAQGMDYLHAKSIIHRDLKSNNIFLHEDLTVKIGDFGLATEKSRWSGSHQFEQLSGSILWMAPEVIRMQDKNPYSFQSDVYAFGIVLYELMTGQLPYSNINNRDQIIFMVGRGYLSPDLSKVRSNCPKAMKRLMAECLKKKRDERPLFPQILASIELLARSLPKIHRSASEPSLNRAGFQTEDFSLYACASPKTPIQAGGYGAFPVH
Description: Determining the activity of Raf in the sample is possible by a number of direct and indirect detection methods (US 2004/0082014). Activity of human recombinant B-Raf protein may be assessed in vitro by assay of the incorporation of radio labeled phosphate to recombinant MAP kinase (MEK), a known physiologic substrate of B-Raf, according to US 2004/0127496 and WO 03/022840. The activity/inhibition of V600E full-length B-Raf was estimated by measuring the incorporation of radio labeled phosphate from [γ-^33P]ATP into FSBA-modified wild-type MEK (see Example A).
Activity of human recombinant B-Raf protein may be assessed in vitro by assay of the incorporation of radio labeled phosphate to recombinant MAP kinase (MEK), a known physiologic substrate of B-Raf, according to US 2004/0127496 and WO 03/022840. Catalytically active human recombinant B-Raf protein is obtained by purification from sf9 insect cells infected with a human B-Raf recombinant baculovirus expression vector.
The activity/inhibition of V600E full-length B-Raf was estimated by measuring the incorporation of radio labeled phosphate from [γ-^33P]ATP into FSBA-modified wild-type MEK. The 30-μL assay mixtures contained 25 mM Na Pipes, pH 7.2, 100 mM KCl, 10 mM MgCl2, 5 mM β-glycerophosphate, […], 4 μM ATP, 500 nCi [γ-^33P]ATP, 1 μM FSBA-MEK and 20 nM V600E full-length B-Raf. Incubations were carried out at 22° C. in a Costar 3365 plate (Corning). Prior to the assay, the B-Raf and FSBA-MEK were preincubated together in assay buffer at 1.5×(20 μL of 30 nM and 1.5 μM, respectively) for 15 minutes, and the assay was initiated by the addition of 10 μL of 10 μM ATP. Following the 60-minute incubation, the assay mixtures were quenched by the addition of 100 μL of 25% TCA, the plate was mixed on a rotary shaker for 1 minute, and the product was captured on a Perkin-Elmer GF/B filter plate using a Tomtec Mach III Harvester. After sealing the bottom of the plate, 35 μL of Bio-Safe II (Research Products International) scintillation cocktail were added to each well and the plate was top-sealed and counted in a Topcount NXT (Packard).

[2] = B-Raf V600E assay of Example A, read-out: IC50
[3] = [γ-33P]ATP incorporation into FSBA-MEK, 4 μM ATP, read-out: BRAF V600E IC50

IC50 (V600E full-length B-Raf; [2])	IC50 (V600E full-length B-Raf; [3])	Compound	IC50 [1]	IC50 (V600E full-length B-Raf; BRAF V600E IC50 (μM), [γ-33P]ATP incorporation into FSBA-MEK, 4 μM ATP)
< 0.1 µM	0.00055 µM	CC(C)CS(=O)(=O)Nc1ccc(F)c(NC(=O)c2cccc3c(N)ncnc23)c1Cl [Example 10, 4-Amino-quinazoline-8-carboxylic acid [2-chloro-6-fluoro-3-(2-methyl-propane-1-sulfonylamino)-phenyl]-amide]	0.00673 µM	
< 0.1 µM	0.00413 µM	CCCS(=O)(=O)Nc1cc(F)cc(NC(=O)c2cccc3c(N)ncnc23)c1F [Example 11, 4-Amino-quinazoline-8-carboxylic acid [2,5-difluoro-3-(propane-1-sulfonylamino)-phenyl]-amide]	0.045 µM	
< 0.1 µM	0.00155 µM	CC(C)CS(=O)(=O)Nc1ccc(F)c(NC(=O)c2cccc3c(N)ncnc23)c1F [Example 12, 4-Amino-quinazoline-8-carboxylic acid [2,6-difluoro-3-(2-methyl-propane-1-sulfonylamino)-phenyl]-amide]	0.00854 µM	
< 0.1 µM	0.0038 µM	Nc1ncnc2c(C(=O)Nc3c(F)ccc(NS(=O)(=O)CC4CC4)c3F)cccc12 [Example 13, 4-Amino-quinazoline-8-carboxylic acid (3-cyclopropyl-methane-sulfonylamino-2,6-difluoro-phenyl)-amide]	0.0149 µM	
< 0.1 µM	0.0279 µM	CCCS(=O)(=O)Nc1cc(Cl)cc(NC(=O)c2cccc3c(N)ncnc23)c1F [Example 14, 4-Amino-quinazoline-8-carboxylic acid [5-chloro-2-fluoro-3-(propane-1-sulfonylamino)-phenyl]-amide]	0.381 µM	
< 0.1 µM	0.0005 µM	CC(C)CS(=O)(=O)Nc1ccc(Cl)c(NC(=O)c2cccc3c(N)ncnc23)c1F [Example 15, 4-Amino-quinazoline-8-carboxylic acid [6-chloro-2-fluoro-3-(2-methyl-propane-1-sulfonylamino)-phenyl]-amide]	0.00608 µM	
< 0.1 µM	0.0026 µM	Nc1ncnc2c(C(=O)Nc3c(F)ccc(NS(=O)(=O)CC4CC4)c3Cl)cccc12 [Example 16, 4-Amino-quinazoline-8-carboxylic acid (2-chloro-3-cyclopropyl-methane-sulfonylamino-6-fluoro-phenyl)-amide]	0.0152 µM	
< 0.1 µM	0.00153 µM	CCS(=O)(=O)Nc1ccc(Cl)c(NC(=O)c2cccc3c(N)ncnc23)c1F [Example 18, 4-Amino-quinazoline-8-carboxylic acid (6-chloro-3-ethanesulfonyl-amino-2-fluoro-phenyl)-amide]	0.0182 µM	
< 0.1 µM	0.00497 µM	CCS(=O)(=O)Nc1ccc(F)c(NC(=O)c2cccc3c(N)ncnc23)c1F [Example 19, 4-Amino-quinazoline-8-carboxylic acid (3-ethanesulfonyl-amino-2,6-difluoro-phenyl)-amide]	0.0259 µM	
< 0.1 µM	0.00224 µM	CCS(=O)(=O)Nc1ccc(F)c(NC(=O)c2cccc3c(N)ncnc23)c1Cl [Example 20, 4-Amino-quinazoline-8-carboxylic acid (2-chloro-3-ethanesulfonyl-amino-6-fluoro-phenyl)-amide]	0.0324 µM	
< 0.1 µM	0.0185 µM	CCCS(=O)(=O)Nc1ccc(C)c(NC(=O)c2cccc3c(N)ncnc23)c1 [Example 21, 4-Amino-quinazoline-8-carboxylic acid [2-methyl-5-(propane-1 sulfonylamino)-phenyl]-amide]	1.32 µM	

Compound	IC50 (V600E full-length B-Raf; [2])	IC50 (V600E full-length B-Raf; [3])	IC50 [1]	IC50 (V600E full-length B-Raf; BRAF V600E IC50 (μM), [γ-33P]ATP incorporation into FSBA-MEK, 4 μM ATP)
CCCS(=O)(=O)Nc1ccc(Cl)c(NC(=O)c2cccc3c(N)ncnc23)c1F [Example 17, 4-Amino-quinazoline-8-carboxylic acid [6-chloro-2-fluoro-3-(propane-1-sulfonylamino)-phenyl]-amide]	< 0.1 µM		0.0087 µM	0.00058 µM
